According to US9951042B2, “Polymorphic form of [5-fluoro-3-({2-[(4-fluorobenzene) sulfonyl] pyridin-3-yl}methyl)-2-methylindol-1-yl]-acetic acid” (Atopix Therapeutics Limited, priority 2014, dated 2018):
≈ marks a conversion by molar mass, not a printed value. Entries after “also recorded” stand apart in the source; their conditions may differ.

Experiments:
[1] = Dynamic vapour sorption (DVS); assay type: physicochemical
Description: DVS (SPS): Sorption Measurement System SPS11-100n. The sample was placed in an Al crucible, and the sample was allowed to equilibrate at a given r.h. before starting a predefined humidity program. The used measurement program can be recognized in the corresponding figures (blue line).
In order to examine the behaviour of Batch 1 in the presence of variable water vapour pressure, the sample was analyzed by DVS. […] The sample was conditioned at 50% r.h. before starting a pre-defined humidity program with a scanning rate of 5% r.h. change per hour. Below 50% r.h. a continuous mass loss is observed. […] At relative humidities above 84% r.h. an increased water uptake is observed. At 95% r.h. no equilibrium is reached. This is typical for amorphous material. At the end of the measurement (end humidity 50% r.h.) the sample has a 0.6% higher mass as the starting material. The sample was checked by FT-Raman (pre- and post DVS measurements).

TG-FTIR thermogravimetry = assay type: physicochemical; conditions: 25° C. to 250° C., heating rate 10° C./min
Description: TG-FTIR: Thermogravimetric measurements were carried out with a Netzsch Thermo-Microbalance TG 209 coupled to a Bruker FTIR Spectrometer Vector 22 or IFS 28 (sample pans with a pinhole, N2 atmosphere, heating rate 10° C./min, range 25° C. up to 250° C.).
Batch 3 was analyzed by TG-FTIR in a temperature range of 25° C. to 250° C. and a heating rate of 10° C./min. […] Decomposition occurs above ˜160° C. Therefore the material is likely a non-solvated form.

CRTH2 receptor = target: T1, CRTH2 receptor (Homo sapiens, UniProt Q9Y5Y4); conditions: cited from earlier work
T1 sequence (Q9Y5Y4 1-395): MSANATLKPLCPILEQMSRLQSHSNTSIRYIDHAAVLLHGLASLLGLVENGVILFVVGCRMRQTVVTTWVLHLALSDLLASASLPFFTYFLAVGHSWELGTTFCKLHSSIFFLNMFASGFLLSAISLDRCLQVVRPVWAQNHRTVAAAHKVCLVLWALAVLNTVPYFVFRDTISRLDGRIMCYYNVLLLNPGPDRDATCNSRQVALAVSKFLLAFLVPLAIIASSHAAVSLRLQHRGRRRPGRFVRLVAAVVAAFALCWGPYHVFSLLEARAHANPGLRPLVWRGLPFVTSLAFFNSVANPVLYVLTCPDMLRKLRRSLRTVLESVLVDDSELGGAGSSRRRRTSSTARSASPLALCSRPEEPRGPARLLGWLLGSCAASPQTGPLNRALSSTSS

[2] = Thermodynamic stability of polymorphic forms (suspension equilibration); assay type: physicochemical
Description: Polymorphic Form 3 has a melting signal at 200° C. as measured by differential scanning calorimetry and is stable at temperatures above about 60-65° C.
A mixture with similar ratios of the products of Example 4, Experiment 15 (Form 1), Example 4, Experiment 9 (form 2+x) and Example 4, Experiment 6 (Form 2+Form 3) were suspended in acetonitrile and shaken for 13 days at 22° C. to give a product designated Product P24). The solid was recovered by filter centrifugation and characterized by PXRD. […] These signals could be assigned to (i) another crystalline form or (ii) the signals could not be detected for Product P24 because the diffractogram has a lower intensity.
Thus, after 13 days at 22° C. the PXRD corresponds to that of Form 2.

[3] = Solubility of polymorphic forms in simulated intestinal fluids by HPLC; assay type: physicochemical; conditions: for Solubility / pH of Saturated solution: 25° C., equilibrated 24 hours
Description: The solubility of Form 1, Form 2 and Form 3 was determined by HPLC in fasted state simulated intestinal fluid (FaSSIF) and fed state simulated intestinal fluid (FeSSIF) at 25° C. FaSSIF and FeSSIF were prepared from SIF powder, available at PHARES, Switzerland. Suspensions of […] were prepared and equilibrated for 24 hours at 25° C. The suspensions were filtered. The pH values of the resulting saturated solutions were measured. The filtrates were diluted and analyzed by HPLC using a general, unoptimized method. The values listed below are averages over multiple repetitions. Additionally Raman spectra of the recovered solids were recorded.

| Structure (SMILES) | Temperature range of thermodynamic stability [2] | Solubility ([3]; FaSSIF) | pH of Saturated solution ([3]; FaSSIF) | Solubility ([3]; FeSSIF) | pH of Saturated solution ([3]; FeSSIF) | other results |
| --- | --- | --- | --- | --- | --- | --- |
| Cc1c(Cc2cccnc2S(=O)(=O)c2ccc(F)cc2)c2cc(F)ccc2n1CC(=O)O [Batch 1, [5-fluoro-3-({2-[(4-fluorobenzene)sulfonyl]pyridin-3-yl}methyl)-2-methylindol-1-yl]-acetic acid] | – | – | – | – | – | Mass change at end of DVS measurement versus starting material ([1]; end humidity 50% r.h., 5% r.h. change per hour): 0.6%; Phase transition after DVS (FT-Raman pre- and post) ([1]; sample recovered from DVS): no phase transition |
| Cc1c(Cc2cccnc2S(=O)(=O)c2ccc(F)cc2)c2cc(F)ccc2n1CC(=O)O [Batch 3, [5-fluoro-3-({2-[(4-fluorobenzene)sulfonyl]pyridin-3-yl}methyl)-2-methylindol-1-yl]-acetic acid] | – | – | – | – | – | Decomposition temperature (TG-FTIR thermogravimetry): > 160 °C |
| Cc1c(Cc2cccnc2S(=O)(=O)c2ccc(F)cc2)c2cc(F)ccc2n1CC(=O)O [Compound 1, [5-fluoro-3-({2-[(4-fluorobenzene)sulfonyl]pyridin-3-yl}methyl)-2-methylindol-1-yl]-acetic acid] | – | – | – | – | – | CRTH2 antagonist activity (CRTH2 receptor): has CRTH2 antagonist activity |
| Cc1c(Cc2cccnc2S(=O)(=O)c2ccc(F)cc2)c2cc(F)ccc2n1CC(=O)O [Form 1, [5-fluoro-3-({2-[(4-fluorobenzene)sulfonyl]pyridin-3-yl}methyl)-2-methylindol-1-yl]-acetic acid] | thermodynamically stable at high temperatures | 720 µg/mL (≈ 1580 µM) | 5.7 | 1180 µg/mL (≈ 2590 µM) | 4.9 | – |
| Cc1c(Cc2cccnc2S(=O)(=O)c2ccc(F)cc2)c2cc(F)ccc2n1CC(=O)O [Form 2, [5-fluoro-3-({2-[(4-fluorobenzene)sulfonyl]pyridin-3-yl}methyl)-2-methylindol-1-yl]-acetic acid] | 60-65 °C | 550 µg/mL (≈ 1200 µM) | 6.1 | 350 µg/mL (≈ 767 µM) | 5.0 | Most stable form after suspension equilibration of a mixture of forms ([2]; acetonitrile, 13 days at 22° C., PXRD): most stable form at room temperature |
| Cc1c(Cc2cccnc2S(=O)(=O)c2ccc(F)cc2)c2cc(F)ccc2n1CC(=O)O [Form 3, [5-fluoro-3-({2-[(4-fluorobenzene)sulfonyl]pyridin-3-yl}methyl)-2-methylindol-1-yl]-acetic acid] | 60-65 °C | 1310 µg/mL (≈ 2870 µM) | 5.4 | 2120 µg/mL (≈ 4640 µM) | 5.0 | Comparative solubility among crystalline forms ([3]; FaSSIF and FeSSIF): most soluble crystalline form; also recorded: more soluble in both FaSSIF and FeSSIF |
